Seven compounds from patent US20230159445A1, “STAT INHIBITORY COMPOUNDS AND COMPOSITIONS” (JANPIX LIMITED, priority 2020, published 2023) can be followed below.

Like-named read-outs stand apart in the source and are kept apart here.

The test system of one data set is MV4-11 cells. Kind of data set: MV4-11 Cell Cytotoxicity Assay (CellTiter-Blue, 72 h). It is filed as cell-based, human. Conditions: Homo sapiens. In a few lines: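 Viability read-out: CellTiter-Blue, 1 h, fluorescence 560/590 nm. Preceded by 72 h exposure (37° C, 5% CO2) to twofold dilution series from 50 μM, triplicate, 0.5% DMSO vehicle, applied 24 h after plating.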
A general note: Alamar Blue is a resazurin reagent that responds to reducing activity.

The nature of data set [1]: Reactivity Profiling with Glutathione (GSH), half-life by HPLC. Conditions: 5 mM glutathione, 25° C., HPLC.
The test system of data set [2] is normal human fibroblast (NHF) cells. In words: NHF Cell Cytotoxicity Assay (CellTiter-Blue, 72 h), off-target effects. Conditions: Homo sapiens, Fibroblast; pooled NHF cells. Format: cell-based. Put shortly:
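Normal human fibroblasts (1×10^4/well, 10% FBS medium) were treated after 24 h with inhibitor at 0.097656-50 μM for 72 h at 37° C. Viability was read by CellTiter-Blue fluorescence (560/590 nm), normalized to DMSO control, and IC50 obtained from a variable-slope log(inhibitor)-response fit of four replicates.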

The next data set deals with glutathione (GSH). Kind of data set: Reactivity Profiling with Glutathione (GSH), half-life by HPLC. The following applies: 5 mM glutathione (GSH) in IMDM with 10% FBS.
The mark [3] stands for this setting: MV4-11 cells, 72 h, CellTiter-Blue, read-out: IC50- MV-4-11.

By IC50 is commonly meant the midpoint of a concentration-inhibition curve. Turning to `CC(C)(C)c1cc(CN(C(=O)CN(Cc2ccc(Cl)cc2)S(=O)(=O)c2c(F)c(F)c(F)c(F)c2F)c2ccc(C(=O)O)c(O)c2)cc(C2CCC2)c1` [Compound 2020, 4-(N-(3-(tert-butyl)-5-cyclobutylbenzyl)-2-(N-(4-chlorobenzyl)-(2,3,4,5,6-pentafluorophenyl)sulfon-amido)acetamido)-2-hydroxybenzoic acid], the IC50 in the data set with MV4-11 cells (setting [3]) lay in the range of 3.16 to 100 µM. In data set [1], the “Tl/2- GSH” value was “B (247≤B<554)”.
Consider `CC(C)(C)c1cc(CN(C(=O)CN(Cc2ccccc2F)S(=O)(=O)c2c(F)c(F)c(F)c(F)c2F)c2ccc(C(=O)O)c(O)c2)cc(C(C)(C)C)n1` [Compound 2015, 4-(N-((2,6-di-tert-butylpyridin-4-yl)methyl)-2-(N-(2-fluorobenzyl)-(2,3,4,5,6-pentafluoro-phenyl)sulfonamido)acetami-do)-2-hydroxybenzoic acid], for which the IC50 in the data set on MV4-11 cells (setting [3]) lay within 3.16 to 100 µM. For the same compound, the “Tl/2- GSH” value in data set [1] is “C (142≤C<247)”.
Regarding `O=C(O)c1ccc(N(Cc2ccccc2)C(=O)CN(Cc2ccc(Cl)cc2)S(=O)(=O)c2c(F)c(F)c(F)c(F)c2F)cc1O` [Compound 2004, 4-(N-benzyl-2-(N-(4-chlorobenzyl)-(2,3,4,5,6-pentafluorophenyl)sulfon-amido)acetamido)-2-hydroxybenzoic acid], in the data set on MV4-11 cells (setting [3]), the 50% inhibitory concentration (IC50) lay in the range of 3.16 to 100 µM. Moreover, the “Tl/2- GSH” value in data set [1] is “D (0.1<D<142)”.
Regarding `CC(C)(C)c1cc(CN(C(=O)CN(Cc2ccc(Cl)cc2)S(=O)(=O)c2c(F)c(F)c(F)c(F)c2F)c2ccc(C(=O)O)c(O)c2)cc(C(C)(C)C)c1` [Compound 2001, 4-(2-(N-(4-chlorobenzyl)-(2,3,4,5,6-pentafluorophenyl)sulfon-amido)-N-(3,5-di-tert-butylbenzyl)acetamido)-2-hydroxybenzoic acid], the IC50 in the data set on MV4-11 cells (setting [3]) lay in the range of 3.16 to 100 µM. The “Tl/2- GSH” value in data set [1] was “B (247≤B<554)”.
For the compound `CN(C(=O)CN(Cc1ccccc1C(F)(F)F)S(=O)(=O)c1c(F)c(F)c(F)c(F)c1F)c1ccc(C(=O)O)cc1OC1CC1` [Compound 2016, 3-cyclopropoxy-4-(N-methyl-2-(N-(2-(trifluoromethyl)benzyl)-(2,3,4,5,6-pentafluoro-phenyl)sulfonamido)acetami-do)benzoic acid], the IC50 in the data set on MV4-11 cells (setting [3]) fell in the range of 1 to 3.16 µM. Further, in data set [1], the “Tl/2- GSH” value is on record as “D (0.1<D<142)”.
In the case of `CN(C(=O)CN(Cc1ccccc1C(F)(F)F)S(=O)(=O)c1c(F)c(F)c(F)c(F)c1F)c1ccc(C(=O)O)cc1N1CCOCC1` [Compound 2017, 4-(N-methyl-2-(N-(2-(trifluoromethyl)benzyl)-(2,3,4,5,6-pentafluoro-phenyl)sulfonamido)acetami-do)-3-morpholinobenzoic acid], in the data set on MV4-11 cells (setting [3]), the IC50 is 1 to 3.16 µM. In addition, the “Tl/2- GSH” value in data set [1] was “D (0.1<D<142)”.
Usually half-life stands for the time in which the quantity being followed falls by half. Consider `CCOc1cc(C(=O)O)ccc1N(Cc1cc(C2CC2)cc(N2CCCC2)c1)C(=O)CN(Cc1ccccc1C#N)S(=O)(=O)c1c(F)c(F)c(F)c(F)c1F` [Compound 1281, 4-(2-((N-(2-cyanobenzyl)-2,3,4,5,6-pentafluorophenyl)sulfonamido)-N-(3-cyclopropyl-5-(pyrrolidin-1-yl)benzyl)acetamido)-3-ethoxybenzoic acid], for which the IC50 lay within 1e-05 to 0.316 µM with MV4-11 cells (MV4-11, MV-4-11 cells) and 10 to 20 µM in data set [2]. In addition, the half-life at 25 μM in the data set on glutathione (GSH) is 2.37 to 4.12 h.
